According to ChEMBL document CHEMBL1201862, “PubChem BioAssay data set” (2004):
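Step 1: Grow cells in 96-well plates. Step 2: Expose to compound for 48 hours at 5 concentrations. Step 3: Interpolate endpoints linearly; if unreached, use highest concentration. The concentration for 50% growth inhibition is given as GI50.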 Active and inactive are the calls of the source. Cut-off read from the data, not from the text of the source: active = GI50 up to about 1.1 µM and inactive = higher.

Key:
Experiment in all cases: NCI-60 cell line screen, 48 h
RXF 393 = test system: RXF 393
HOP-62 = test system: HOP-62
OVCAR-4 = test system: OVCAR-4
OVCAR-3 = test system: OVCAR-3
HOP-92 = test system: HOP-92
786-0 = test system: 786-0
EKVX = test system: EKVX
SK-OV-3 = test system: SK-OV-3
U-251 = test system: U-251
NCI-H23 = test system: NCI-H23
ACHN = test system: ACHN
SF-268 = test system: SF-268
LOX IMVI = test system: LOX IMVI
SW-620 = test system: SW-620
HCT-116 = test system: HCT-116
A498 = test system: A498

| SMILES | GI50 (RXF 393) | GI50 (HOP-62) | GI50 (OVCAR-4) | GI50 (OVCAR-3) | GI50 (HOP-92) | GI50 (786-0) | GI50 (EKVX) | GI50 (SK-OV-3) | GI50 (U-251) | GI50 (NCI-H23) | GI50 (ACHN) | GI50 (SF-268) | GI50 (LOX IMVI) | GI50 (SW-620) | GI50 (HCT-116) | GI50 (A498) |
| --- | --- | --- | --- | --- | --- | --- | --- | --- | --- | --- | --- | --- | --- | --- | --- | --- |
| CCCCCCCCCc1cc(=O)c2ccc(OCc3ccccc3)cc2o1 | 96.2 µM (inactive) | > 100 µM (inactive) | 83.2 µM (inactive) | > 100 µM (inactive) | > 100 µM (inactive) | > 100 µM (inactive) | > 100 µM (inactive) | > 100 µM (inactive) | > 100 µM (inactive) | > 100 µM (inactive) | > 100 µM (inactive) | > 100 µM (inactive) | > 100 µM (inactive) | > 100 µM (inactive) | 71.3 µM (inactive) |  |
| COc1cccc2c1C(=O)c1c(O)c3c(c(O)c1C2=O)C[C@@](O)(C(=O)CO)CC3OC1CC(N(C)CCOCC(OC(C)=O)OC(C)=O)C(O)C(C)O1 (some centres undefined) | > 0.01 µM (active) | > 0.01 µM (active) | > 0.01 µM (active) | > 0.01 µM (active) | > 0.01 µM (active) | > 0.01 µM (active) | > 0.01 µM (active) | > 0.01 µM (active) | > 0.01 µM (active) | > 0.01 µM (active) | > 0.01 µM (active) | > 0.01 µM (active) | > 0.01 µM (active) | > 0.01 µM (active) |  |  |
| CC(=O)NNc1nc(C)c(C(=O)/C=C/c2ccccc2Cl)s1 | > 100 µM (inactive) | > 100 µM (inactive) |  | > 100 µM (inactive) | > 100 µM (inactive) | > 100 µM (inactive) | > 100 µM (inactive) | > 100 µM (inactive) | > 100 µM (inactive) | > 100 µM (inactive) | > 100 µM (inactive) | > 100 µM (inactive) | > 100 µM (inactive) | > 100 µM (inactive) |  | > 100 µM (inactive) |
| CC1CCC23COC(=O)C2C(O)CCC3C1(C)CC(O)c1ccoc1 (centres undefined) | > 100 µM (inactive) | > 100 µM (inactive) | > 100 µM (inactive) | > 100 µM (inactive) | > 100 µM (inactive) | > 100 µM (inactive) | > 100 µM (inactive) | > 100 µM (inactive) | > 100 µM (inactive) | > 100 µM (inactive) | > 100 µM (inactive) | > 100 µM (inactive) | > 100 µM (inactive) | > 100 µM (inactive) | > 100 µM (inactive) | > 100 µM (inactive) |
| O=C(CC(=O)N1N=C(n2ccc3ccccc32)CC1c1ccccc1)Nc1ccc(Cl)cc1 (centres undefined) | > 100 µM (inactive) | > 100 µM (inactive) | > 100 µM (inactive) | > 100 µM (inactive) | 77.6 µM (inactive) | > 100 µM (inactive) | > 100 µM (inactive) | > 100 µM (inactive) | > 100 µM (inactive) | > 100 µM (inactive) | > 100 µM (inactive) | > 100 µM (inactive) | > 100 µM (inactive) | > 100 µM (inactive) | > 100 µM (inactive) | > 100 µM (inactive) |
| Cc1ccc(NC(=O)c2nc(S)nc(N)c2-c2ccccc2C)cc1C | > 100 µM (inactive) |  | > 10 µM (inactive) | > 100 µM (inactive) | > 100 µM (inactive) | > 100 µM (inactive) | > 100 µM (inactive) | > 100 µM (inactive) | > 100 µM (inactive) | > 100 µM (inactive) | > 100 µM (inactive) | > 100 µM (inactive) | > 100 µM (inactive) | > 100 µM (inactive) | > 100 µM (inactive) | > 100 µM (inactive) |
| CC1CCCC(C(=O)/C(=C/c2cccc(Cl)c2)C(=O)C(=O)O)C1 (centres undefined) |  | > 100 µM (inactive) | 37.8 µM (inactive) | 24.7 µM (inactive) | 39 µM (inactive) | 17.9 µM (inactive) | 47.1 µM (inactive) | 81.5 µM (inactive) | 17.3 µM (inactive) | 39.5 µM (inactive) | 39.4 µM (inactive) | 42.1 µM (inactive) |  | 14.5 µM (inactive) | 13.8 µM (inactive) | > 100 µM (inactive) |
